{"source": "patent US20220023317A1", "about": "“PREVENTING OR MITIGATING CHEMOTHERAPY INDUCED ALOPECIA USING VITAMIN D” (Berg LLC, priority 2013, published 2022)", "key": {"SkBr-3": {"tested_on": "SkBr-3", "assay": "Cell growth / viability assay", "type": "cell-based"}, "guinea pigs": {"tested_on": "guinea pigs", "assay": "Skin sensitization study", "type": "in vivo, guinea pig", "conditions": "calcitriol at 5.7 μg/g, topical patch induction and challenge", "procedure": "Induction phase. […] The induction exposure was repeated at the same skin site once a week for 2 weeks. The vehicle and positive control groups composed of 5 male and 5 female guinea pigs, each of which were exposed in the same manner as the treatment group to propylene glycol/anhydrous ethanol or hexylcinnamic aldehyde (a known mild to moderate skin-sensitizer), respectively. Skin reactions were scored and recorded at approximately 24 hours after patch removal during the induction phase. After the last induction exposure, the animals remained untreated for two weeks before the challenge exposure.\nChallenge phase. The challenge exposure was conducted two weeks after the final topical induction. The test article was topically applied to the Vehicle Control and Test Group at the concentration determined to be non-irritating in the irritation screen. The Vehicle Control Group was also challenged with the Vehicle. The Positive Control Groups received the positive control article. The challenge application sites were scored at approximately 24 and 48 hours after patch removal."}, "[1]": {"tested_on": "female C57BL/6 adolescent mice", "conditions": "topical calcitriol; cited from earlier work"}}}
{"compound": "C=C1/C(=C\\C=C2/CCC[C@]3(C)[C@@H]([C@H](C)CCCC(C)(C)O)CC[C@@H]23)C[C@@H](O)C[C@@H]1O", "note": "[Calcitriol, (1a.3B.5Z.7E)-9,10-secocholesta-5,7,10(19)-triene-1,3,25-triol]", "values": [{"measurement": "effect of calcitriol on cell growth", "setting": "SkBr-3", "value": "no significant growth promoting or growth inhibiting effects"}, {"measurement": "effect of calcitriol on cytotoxic effect of Doxorubicin", "setting": "SkBr-3", "value": "did not appear to appreciably alter"}, {"measurement": "skin sensitization", "setting": "guinea pigs", "value": "not determined to be a sensitizer"}, {"measurement": "prevention of cyclophosphamide-induced alopecia", "setting": "[1]", "value": "failed to demonstrate efficacy"}, {"measurement": "regrowth of pigmented hair shafts", "setting": "[1]", "value": "significantly accelerated, enhanced, and quantitatively improved"}]}
